Measurements published in patent publication US20240076293A1, “Compositions and Methods for Inhibiting Fibrosis, Inflammation and Cancer” (Georgia Tech Research Corporation, priority 2020, published 2024).
Counter-ions that a name gives are not always drawn. Like-named read-outs stand apart in the source and are kept apart here.

Assays:
Format in all cases: cell-based
MRC-5 = experiment: Anti-proliferation IC50, MRC-5; details: Homo sapiens, MRC5; Table 2, compounds of formula II
A549 = experiment: Anti-proliferation IC50, A549; details: Homo sapiens
MCF-7 = experiment: Anti-proliferation IC50, MCF-7; details: Homo sapiens, MCF7
VERO = experiment: Anti-proliferation IC50, VERO; details: Chlorocebus sabaeus
Hep-G2 = experiment: Anti-proliferation IC50, Hep-G2; details: Homo sapiens, HepG2
MDA-MB-231 = experiment: Anti-proliferation IC50, MDA-MB-231; details: Homo sapiens
[1] = Anti-proliferation IC50, MRC-5; details: human, MRC-5 cells; Table 1, compounds of formula I; NI = no inhibition up to 500 μM
[2] = Table 2, compounds of formula II, read-out: Anti-proliferation IC50 A549
[3] = Table 2, compounds of formula II, read-out: Anti-proliferation IC50 MCF-7
[4] = Table 2, compounds of formula II, read-out: Anti-proliferation IC50 VERO
[5] = Table 2, compounds of formula II, read-out: Anti-proliferation IC50 Hep-G2
[6] = Table 2, compounds of formula II, read-out: Anti-proliferation IC50 MDA-MB-231
[7] = Table 1, compounds of formula I, NI = no inhibition up to 500 μM, read-out: A549 (IC50)
[8] = Table 1, compounds of formula I, NI = no inhibition up to 500 μM, read-out: MCF-7 (IC50)
[9] = Table 1, compounds of formula I, NI = no inhibition up to 500 μM, read-out: VERO (IC50)
[10] = Table 1, compounds of formula I, NI = no inhibition up to 500 μM, read-out: Hep-G2 (IC50)
[11] = Table 1, compounds of formula I, NI = no inhibition up to 500 μM, read-out: MDA-MB-231 (IC50)

IC50 (A549; [2]) [µM] | IC50 (MCF-7; [3]) [µM] | IC50 (Hep-G2; [5]) [µM] | IC50 (MDA-MB-231; [6]) [µM] | IC50 (A549; [7]) [µM] | IC50 (MCF-7; [8]) [µM] | IC50 (Hep-G2; [10]) [µM] | IC50 (MDA-MB-231; [11]) [µM] | Compound | IC50 (MRC-5) [µM] | IC50 (VERO; [4]) [µM] | IC50 [1] [µM] | IC50 (VERO; [9]) [µM]
111 ± 4.6 | 39.3 ± 7.1 | 64.9 ± 2.4 | 34.8 ± 2.8 |  |  |  |  | CCCCOC(=O)/C=C/C(=O)N(C)[C@@H]1C[C@H](C)O[C@H](O[C@H]2[C@H](C)[C@@H](O[C@H]3C[C@@](C)(OC)[C@@H](O)[C@H](C)O3)[C@H](C)C(=O)O[C@@H](CC)[C@](C)(O)[C@@H](O)[C@H](C)N(C)C[C@@H](C)CC2(C)O)[C@H]1O (stereo partly drawn) | 78.9 ± 2.6 | 97.2 ± 15.5 |  | 
141 ± 4.3 | 50 ± 1.5 | 63.6 ± 7.7 | 29.6 ± 3 |  |  |  |  | CCCCOC(=O)/C=C/C(=O)O[C@@H]1[C@@H](O[C@H]2[C@H](C)[C@@H](O[C@H]3C[C@@](C)(OC)[C@@H](O)[C@H](C)O3)[C@H](C)C(=O)O[C@@H](CC)[C@](C)(O)[C@@H](O)[C@H](C)N(C)C[C@@H](C)CC2(C)O)O[C@@H](C)C[C@H]1N(C)C (stereo partly drawn) | 43.6 ± 8.5 | 126 ± 2.4 |  | 
 |  |  |  | > 500 | 477.3 ± 3.4 | 222 ± 5.3 | 414.4 ± 1.7 | CC[C@H]1OC(=O)[C@@H](C)[C@@H](O)[C@@H](C)[C@@H](O[C@H]2O[C@@H](C)C[C@@H](N(C)C)[C@@H]2OC(=O)CCCC[C@H]2CCSS2)[C@](C)(OC)C[C@@H](C)C(=O)[C@H](C)[C@H](O)[C@]1(C)O |  |  | 262.6 ± 0.4 | > 500
 |  |  |  | > 500 | > 500 | > 500 | > 500 | COC(=O)/C=C/C(=O)OC [Dimethyl Fumarate, reference compound] |  |  | 259 | 844
 |  |  |  | 278 | 128 ± 16.5 | 133 | 140 | CC[C@H]1OC(=O)[C@@H](C)[C@@H](O[C@H]2C[C@@](C)(OC)[C@@H](O)[C@H](C)O2)[C@@H](C)[C@@H](O[C@H]2O[C@@H](C)C[C@@H](N(C)C)[C@@H]2OC(=O)/C=C/C(=O)OC)[C@](C)(OC)C[C@@H](C)C(=O)[C@H](C)[C@H](O)[C@]1(C)O |  |  | 88.4 | 219 ± 45.8
284 | 278 | 118 | 118 |  |  |  |  | CC[C@@H]1OC(=O)[C@@H](C)[C@H](O[C@H]2C[C@@](C)(OC)[C@@H](O)[C@H](C)O2)[C@@H](C)[C@H](O[C@H]2O[C@@H](C)C[C@@H](N(C)C)[C@@H]2OC(=O)/C=C/C(=O)OC)C(C)(O)C[C@H](C)CN(C)[C@@H](C)[C@H](O)[C@@]1(C)O (stereo partly drawn) | 68.3 | 238 ± 29.1 |  | 

The next lines start with the molecule.

Compound | IC50 (A549; [2]) [µM] | IC50 (MCF-7; [3]) [µM] | IC50 (Hep-G2; [5]) [µM] | IC50 (MDA-MB-231; [6]) [µM] | IC50 (A549; [7]) [µM] | IC50 (MCF-7; [8]) [µM] | IC50 (Hep-G2; [10]) [µM] | IC50 (MDA-MB-231; [11]) [µM] | IC50 (MRC-5) [µM] | IC50 (VERO; [4]) [µM] | IC50 [1] [µM] | IC50 (VERO; [9]) [µM]
CC[C@@H]1OC(=O)[C@@H](C)[C@H](OC2C[C@@](C)(OC)[C@@H](O)[C@H](C)O2)[C@@H](C)[C@H](O[C@H]2O[C@@H](C)C[C@@H](N(C)Cc3ccc(-c4cn(CCCNC(=O)CCCC[C@H]5CCSS5)nn4)cc3)[C@@H]2O)C(C)(O)C[C@H](C)CN(C)[C@@H](C)[C@H](O)[C@@]1(C)O (stereo partly drawn) | 26.9 | 26.8 ± 7.1 | 14.4 ± 0.6 | 21.3 ± 1.5 |  |  |  |  | 24.5 ± 2.6 | 40.3 ± 4.9 |  | 
CC[C@H]1OC(=O)[C@@H](C)[C@@H](O[C@@H]2C[C@](C)(OC)[C@H](O)[C@@H](C)O2)[C@@H](C)[C@@H](O[C@H]2O[C@@H](C)C[C@@H](N(C)C)[C@@H]2OC(=O)CCCC[C@H]2CCSS2)[C@](C)(OC)C[C@@H](C)C(=O)[C@H](C)[C@H](O)[C@]1(C)O |  |  |  |  | > 500 | > 500 | > 500 | 65 ± 0.9 |  |  | 44.8 ± 7.1 | > 500
CC[C@H]1OC(=O)[C@H](C)[C@@H](O[C@H]2C[C@@](C)(OC)[C@@H](O)[C@H](C)O2)[C@H](C)[C@@H](O[C@@H]2O[C@H](C)C[C@H](N(C)C(=O)CCCC[C@H]3CCSS3)[C@H]2O)[C@](C)(O)C[C@@H](C)CN(C)[C@H](C)[C@@H](O)[C@]1(C)O | 18.8 ± 4.1 | 11.2 | 13.6 ± 0.1 | 11.9 ± 1.7 |  |  |  |  | 20.2 ± 3.7 | 24.4 ± 2.4 |  | 
CC[C@H]1OC(=O)[C@@H](C)[C@@H](O[C@H]2C[C@@](C)(OC)[C@@H](O)[C@H](C)O2)[C@@H](C)[C@@H](O[C@H]2O[C@@H](C)C[C@@H](N(C)Cc3ccc(-c4cn(CCNC(=O)CCCC[C@H]5CCSS5)nn4)cc3)[C@@H]2O)[C@](C)(OC)C[C@@H](C)C(=O)[C@H](C)[C@H](O)[C@]1(C)O |  |  |  |  | 58.6 ± 0.6 | 42.3 ± 4.4 | 57.3 ± 1.2 | 56.9 ± 1.3 |  |  | 56.1 ± 1.2 | 65 ± 12.2
CC[C@H]1OC(=O)[C@@H](C)[C@@H](O[C@H]2C[C@@](C)(OC)[C@@H](O)[C@H](C)O2)[C@@H](C)[C@@H](O[C@H]2O[C@@H](C)C[C@@H](N(C)Cc3ccc(-c4cn(CCCNC(=O)CCCC[C@H]5CCSS5)nn4)cc3)[C@@H]2O)[C@](C)(OC)C[C@@H](C)C(=O)[C@H](C)[C@H](O)[C@]1(C)O |  |  |  |  | 56.9 ± 0.8 | 53.6 ± 0.2 | 49.2 ± 1.8 | 58.5 ± 3.2 |  |  | 51.6 ± 5 | 58.1 ± 2.7
CC[C@@H]1OC(=O)[C@@H](C)[C@H](O[C@H]2C[C@@](C)(OC)[C@@H](O)[C@H](C)O2)[C@@H](C)[C@H](O[C@@H]2O[C@H](C)C[C@H](N(C)C)[C@H]2OC(=O)CCCC[C@H]2CCSS2)C(C)(O)C[C@H](C)CN(C)[C@@H](C)[C@H](O)[C@@]1(C)O (stereo partly drawn) | 23 ± 0.5 | 38.2 ± 0.8 | 29.5 ± 4.4 | 45 ± 1.3 |  |  |  |  | 13.4 ± 0.4 | 54.5 ± 0.8 |  | 
CC[C@@H]1OC(=O)[C@@H](C)[C@H](O[C@H]2C[C@@](C)(OC)[C@@H](O)[C@H](C)O2)[C@@H](C)[C@H](O[C@H]2O[C@@H](C)C[C@@H](N(C)Cc3ccc(-c4cn(CCNC(=O)CCCC[C@H]5CCSS5)nn4)cc3)[C@@H]2O)C(C)(O)C[C@H](C)CN(C)[C@@H](C)[C@H](O)[C@@]1(C)O (stereo partly drawn) | 10.3 ± 0.9 | 11.7 ± 0.4 | 8.5 ± 1.1 | 11.8 ± 0.1 |  |  |  |  | 6.1 | 16.9 ± 0.4 |  | 
